From patent publication US10806794B2, “Protease inhibitors having enhanced features” (priority 2008, dated 2020)
Values joined by “and” are separate entries in the source; they are usually repeats but may differ in a detail not shown here. Equal entries are not always repeated. Where two headings read alike, the source gives them in different places.

What was measured:
human monocytes = assay: Toxicity in human monocytes in the absence of viral infection
Method: Fresh human monocytes were infected with the BaL strain of HIV-1 in the presence of test compounds. After seven days in culture, HIV-1 replication was evaluated by measurement of HIV-1 viral capsid protein (p24) in the tissue culture supernatant (Table 7). […] A TI was calculated as described above using TC50 values derived from cell toxicity data in response to test compounds in the absence of viral infection.

CYP1A2 = CYP1A2 (Homo sapiens (Human), UniProt P05177); assay: CYP450 inhibition in human liver microsomes: CYP1A2
HIV-1RF = assay: Anti-HIV cytoprotection in CEM-SS cells infected with HIV-1RF (XTT); type: cell-based; details: six days, XTT; read-out: CEM-SS/HIV-1RF EC50 ± SD
Method: To evaluate whether conjugated protease inhibitors retain the ability to protect against HIV-1 infection, CEM-SS cells infected with the RF strain of HIV-1 were treated with test compounds for six days, and then cell viability was monitored using the tetrazolium dye XTT. […] A value for Therapeutic Index (TI) was calculated as TC50/EC50.

CYP3A4 = CYP3A4 (Homo sapiens (Human), UniProt P08684); assay: CYP450 inhibition in human liver microsomes: CYP3A4;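 also: incubation at 37 °C started by adding 1 mM NADPH, with formation of the probe metabolite measured via LC-MS/MS or fluorescent detection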
CYP2D6 = CYP2D6 (Homo sapiens (Human), UniProt P10635); assay: CYP450 inhibition in human liver microsomes: CYP2D6
[1] = test system: monocyte-derived dendritic cells; assay: Cytotoxicity in monocyte-derived dendritic cells (XTT); type: cell-based, human
Text: Cell viability is directly proportional to the amount of reduced XTT product formed.

[2] = Metabolic stability in human liver microsomes; details: for CLint ± SEM / t1/2: 3 μM;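 as to t1/2: microsomal protein 0.5 mg/mL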
Method in brief: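 Substrate depletion: compounds at 3 μM final with pooled mixed-sex human liver microsomes (0.5 mg/mL) in 0.1 M phosphate pH 7.4 at 37 °C. Remaining parent quantified by LC-MS/MS.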

HIV-1 HT/92/599 = assay: HIV-1 reverse transcriptase activity after infection of fresh human PBMCs; type: cell-based
Method in brief: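 PHA-P/IL-2-stimulated fresh human PBMCs infected with HIV-1; supernatant reverse transcriptase activity measured by tritiated TTP incorporation on poly rA/oligo dT, 90 min at 37° C. Toxicity from 7-day uninfected PBMC culture read by XTT; TI = TC50/EC50.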

HIV-1Ba-L = assay: Anti-HIV-1 activity in monocyte-derived dendritic cells (reverse transcriptase activity); type: cell-based; details: dendritic cells
Method: Freshly separated human PBMCs from a single donor were suspended in DPBS at 4×10^6 cells/mL and incubated in a 75 cm^2 cell culture flask for 90 minutes at 37° C., 5% CO2. Non-adherent cells were removed by washing with DPBS. Differentiation to dendritic cells was induced by 7 day incubation in RPMI 1640 medium supplemented with 10% fetal bovine serum, 2 mmol/L L-glutamine, 25 mM HEPES, 100 Units/mL penicllin, 10 μg/mL streptomycin, 50 ng/mL recombinant human granulocyte-macrophage-colony stimulating factor (GM-CSF), and 50 ng/mL recombinant human Interleukin (IL)-4 at 37° C., 5% CO2. The cells were further incubated for two days in the same cytokine cocktail supplemented with 10 ng/mL lipopolysaccharide (LPS). The monocyte-derived dendritic cells were then suspended at 10×10^6 cells/mL in complete medium (RPMI 1640 medium supplemented with 10% fetal bovine serum, 2 mmol/L L-glutamine, 25 mM HEPES, 100 Units/mL penicllin, 10 μg/mL streptomycin) and infected for 2 h at 37 C, 5% CO2 with HIV-1Ba-L at MOI=50-150 TCID50. […] Compound diluted in complete medium was added to cells. After seven days in culture, HIV-1 replication was quantified by measuring HIV-1 reverse transcriptase activity in cell-free supernatants using a standard radioactive tritiated thymidine triphosphate (TTP) polymerization incorporation assay. For each reaction, 1 μL of TTP (1 Ci/mL) was combined with 4 μL of dH2O, 2.5 μL of poly rA and oligo dT (0.5 mg/mL and 1.7 Units/mL, respectively), and 2.5 μL reaction buffer (125 μL 1 mol/L EGTA, 125 μL dH2O, 125 μL 20% Triton X-100, 50 μL 1 mol/L Tris, pH 7.4, 50 μL 1 mol/L DTT, 40 μL 1 mol/L MgCl2), then 10 μL of the resulting mixture was combined with 15 µL of virus-containing supernatant in a round-bottom microtiter plate and the plate incubated at 37° C. in a humidified incubator for 90 minutes. Following incubation, 10 μL of the reaction volume was spotted onto a DEAD filter mat, then washed 5×5 min with 5% sodium phosphate buffer, 2×1 minute in distilled water, 2×1 minute in 70% ethanol, then air dried. The filter mat was incubated with Opti-Fluor O scintillation fluid, and radioactivity quantified using a Wallac 1450 Microbeta Trilux liquid scintillation counter.

PBMCs = assay: PBMC macromolecule synthesis (tritiated precursor incorporation); type: cell-based, human
Method: Cellular macromolecule synthesis was evaluated using tritiated precursor incorporation assays. PBMCs (5×10^4 cells/well) were cultured in the presence or absence of test compound for 7 days at 37 C, 5% CO2 in a 96-well microtiter plate. On day 6 of the incubation, 1 uCi of [methyl-3H]-thymidine for DNA synthesis, [5-3H]-uridine for RNA synthesis, or [3,4,5-3H]-leucine for protein synthesis was added to compound-treated cells, and the plate was further incubated for 16 hours. The cells were transferred to a glass fiber filtermat using an Inotech cell harvester. The filtermats were washed with distilled water then sealed in a bag with scintillation fluid. Incorporated radioactivity was measured using a Wallac scintillation counter.

[3] = read-out: CYP1A2 IC50 Phenacetin, probe substrate phenacetin
[4] = read-out: CYP3A4 IC50 Midazolam, probe substrate midazolam
[5] = read-out: CYP3A4 IC50 Testosterone, probe substrate testosterone
[6] = read-out: CYP2D6 IC50 Dextromethorphan, probe substrate dextromethorphan
[7] = read-out: PBMC/HIV-1HT/92/599 EC50 ± SD, seven days, reverse transcriptase activity
[8] = first determination, read-out: EC50 First
[9] = mean of three, read-out: Mean EC50
[10] = second determination, read-out: EC50 Second
[11] = third determination, read-out: EC50 Third

Sequence of CYP2D6 (P10635 whole entry): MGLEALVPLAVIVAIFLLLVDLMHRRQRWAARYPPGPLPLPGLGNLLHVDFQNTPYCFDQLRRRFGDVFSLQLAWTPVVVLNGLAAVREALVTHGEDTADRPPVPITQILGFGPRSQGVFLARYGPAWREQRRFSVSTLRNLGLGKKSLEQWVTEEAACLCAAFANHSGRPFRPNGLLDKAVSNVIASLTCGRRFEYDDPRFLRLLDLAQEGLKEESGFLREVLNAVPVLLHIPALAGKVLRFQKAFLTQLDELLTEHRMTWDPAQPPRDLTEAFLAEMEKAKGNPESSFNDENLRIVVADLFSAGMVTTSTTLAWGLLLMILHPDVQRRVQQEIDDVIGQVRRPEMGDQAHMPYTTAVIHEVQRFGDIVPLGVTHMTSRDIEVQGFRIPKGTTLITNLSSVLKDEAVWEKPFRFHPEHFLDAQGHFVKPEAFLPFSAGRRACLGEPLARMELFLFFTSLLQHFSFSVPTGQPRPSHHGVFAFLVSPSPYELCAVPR
Sequence of CYP1A2 (P05177 whole entry): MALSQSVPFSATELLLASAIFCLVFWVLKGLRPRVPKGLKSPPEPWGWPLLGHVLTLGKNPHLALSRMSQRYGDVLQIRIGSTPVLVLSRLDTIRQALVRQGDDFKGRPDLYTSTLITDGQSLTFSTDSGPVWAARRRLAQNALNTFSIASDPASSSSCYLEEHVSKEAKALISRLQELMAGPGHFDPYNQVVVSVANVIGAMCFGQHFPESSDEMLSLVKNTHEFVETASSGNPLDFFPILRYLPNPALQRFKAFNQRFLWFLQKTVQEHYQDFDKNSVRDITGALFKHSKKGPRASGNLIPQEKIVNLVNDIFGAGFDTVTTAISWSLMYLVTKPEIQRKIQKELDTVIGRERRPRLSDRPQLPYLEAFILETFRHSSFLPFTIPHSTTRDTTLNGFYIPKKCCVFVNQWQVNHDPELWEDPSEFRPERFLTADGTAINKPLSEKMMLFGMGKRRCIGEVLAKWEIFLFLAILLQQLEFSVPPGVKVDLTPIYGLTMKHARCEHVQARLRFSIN
Sequence of CYP3A4 (P08684 whole entry): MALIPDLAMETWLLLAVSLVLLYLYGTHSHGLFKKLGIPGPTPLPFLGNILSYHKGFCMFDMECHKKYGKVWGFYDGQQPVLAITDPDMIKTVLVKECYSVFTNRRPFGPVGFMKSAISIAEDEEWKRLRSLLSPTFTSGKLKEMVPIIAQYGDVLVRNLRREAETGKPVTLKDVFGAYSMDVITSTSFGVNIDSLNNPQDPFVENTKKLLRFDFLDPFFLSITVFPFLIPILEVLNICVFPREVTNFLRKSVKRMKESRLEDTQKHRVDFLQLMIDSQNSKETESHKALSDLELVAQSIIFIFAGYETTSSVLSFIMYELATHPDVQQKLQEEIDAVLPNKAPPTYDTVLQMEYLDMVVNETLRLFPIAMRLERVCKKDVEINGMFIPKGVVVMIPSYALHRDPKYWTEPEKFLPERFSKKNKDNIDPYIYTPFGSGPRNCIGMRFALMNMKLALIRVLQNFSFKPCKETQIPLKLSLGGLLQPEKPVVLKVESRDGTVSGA

COCCOC(=O)NC(C(=O)NC(Cc1ccccc1)C(O)CN(Cc1ccc(-c2ccccn2)cc1)NC(=O)C(NC(=O)OC)C(C)(C)C)C(C)(C)C (centres unmarked) [mono-mPEG1-Atazanavir]
TC50 (human monocytes): 159100 nM | IC50 (CYP1A2; [3]): > 25000 nM | EC50 (HIV-1RF): 2 ± 0.6 nM | IC50 (CYP3A4; [4]): 2560 nM | IC50 (CYP3A4; [5]): 10400 nM | IC50 (CYP2D6; [6]): 18300 nM | TC50 [1]: >1000 nM | CLint ± SEM ([2]; human liver microsomes): 181 ± 0.640 μL/min/mg protein | t1/2 ([2]; human liver microsomes): 7.65 min | EC50 (HIV-1 HT/92/599; [7]): < 20 nM | EC50 (HIV-1Ba-L; [8]): 0.16 nM | EC50 (HIV-1Ba-L; [9]): 0.183 nM | EC50 (HIV-1Ba-L; [10]): 0.25 nM | EC50 (HIV-1Ba-L; [11]): 0.14 nM

COCCOCCOCCOC(=O)NC(C(=O)NC(Cc1ccccc1)C(O)CN(Cc1ccc(-c2ccccn2)cc1)NC(=O)C(NC(=O)OC)C(C)(C)C)C(C)(C)C (centres unmarked) [mono-mPEG3-Atazanavir, {1-[N′-[2-Hydroxy-3-(2-{2-[2-(2-methoxy-ethoxy)-ethoxy]-ethoxycarbonylamino}-3,3-dimethyl-butyrylamino)-4-phenyl-butyl]-N′-(4-pyridin-2-yl-benzyl)-hydrazinocarbonyl]-2,2-dimethyl-propyl}-carbamic Acid Methyl Ester]
Thymidine Incorporation (PBMC) TC50 (PBMCs; DNA synthesis): 36600 nM | Uridine Incorporation (PBMC) TC50 (PBMCs; RNA synthesis): 27700 nM | Leucine Incorporation (PBMC) TC50 (PBMCs; protein synthesis): 82000 nM | IC50 (CYP1A2): > 25000 nM | EC50 (HIV-1RF): 3 ± 2 nM | IC50 (CYP3A4; CYP3A4 IC50 Midazolam, probe substrate midazolam): 2850 nM | IC50 (CYP3A4; CYP3A4 IC50 Testosterone, probe substrate testosterone): 12800 nM | IC50 (CYP2D6): > 25000 nM | microsomal CLint at 3 μM ([2]; both, human, pooled human liver microsomes, pH 7.4, CLint ± SEM, human liver microsomes): 248 ± 31.7 µL/min/mg | half-life at 3 μM ([2]; both, human, pooled human liver microsomes, pH 7.4, t1/2, human liver microsomes): 5.58 min | CLint ± SEM ([2]; human liver microsomes): 172 ± 1.39 μL/min/mg protein | t1/2 ([2]; human liver microsomes): 8.04 min | EC50 (HIV-1 HT/92/599; Human immunodeficiency virus 1, PBMC, 168 h, read-out: PBMC/HIV-1HT/92/599 EC50 ± SD, seven days, reverse transcriptase activity): < 20 nM | EC50 (HIV-1 HT/92/599; [7]): 30 nM and 20.4 nM and 20 nM and 18.7 nM

COCCOCCOCCOCCOCCOC(=O)NC(C(=O)NC(Cc1ccccc1)C(O)CN(Cc1ccc(-c2ccccn2)cc1)NC(=O)C(NC(=O)OC)C(C)(C)C)C(C)(C)C (centres unmarked) [mono-mPEG5-Atazanavir]
TC50 (human monocytes): 120800 nM | IC50 (CYP1A2; [3]): > 25000 nM | EC50 (HIV-1RF): 1 ± 0.6 nM | IC50 (CYP3A4; [4]): 9350 nM | IC50 (CYP3A4; [5]): > 25000 nM | IC50 (CYP2D6; [6]): 22200 nM | TC50 [1]: >1000 nM | CLint ± SEM ([2]; human liver microsomes): 108 ± 9.75 μL/min/mg protein | t1/2 ([2]; human liver microsomes): 12.9 min | EC50 (HIV-1Ba-L; [8]): 0.15 nM | EC50 (HIV-1Ba-L; [9]): 1.24 nM | EC50 (HIV-1Ba-L; [10]): 3.42 nM | EC50 (HIV-1Ba-L; [11]): 0.14 nM

COCCOCCOCCOCCOCCOCCOC(=O)NC(C(=O)NC(Cc1ccccc1)C(O)CN(Cc1ccc(-c2ccccn2)cc1)NC(=O)C(NC(=O)OC)C(C)(C)C)C(C)(C)C (centres unmarked) [mono-mPEG6-Atazanavir]
TC50 (human monocytes): 130200 nM | IC50 (CYP1A2; [3]): > 25000 nM | IC50 (CYP3A4; [4]): 16700 nM | IC50 (CYP3A4; [5]): > 25000 nM | IC50 (CYP2D6; [6]): > 25000 nM | TC50 [1]: >1000 nM | CLint ± SEM ([2]; human liver microsomes): 112 ± 1.10 μL/min/mg protein | t1/2 ([2]; human liver microsomes): 12.3 min | EC50 (HIV-1 HT/92/599; [7]): 108 nM and 117 nM and 60 nM | EC50 (HIV-1Ba-L; [8]): 0.16 nM | EC50 (HIV-1Ba-L; [9]): 0.2 nM | EC50 (HIV-1Ba-L; [10]): 0.21 nM | EC50 (HIV-1Ba-L; [11]): 0.23 nM

COCCOCCOCCOCCOCCOCCOCCOC(=O)NC(C(=O)NC(Cc1ccccc1)C(O)CN(Cc1ccc(-c2ccccn2)cc1)NC(=O)C(NC(=O)OC)C(C)(C)C)C(C)(C)C (centres unmarked) [mono-mPEG7-Atazanavir]
TC50 (human monocytes): 132200 nM | IC50 (CYP1A2; [3]): > 25000 nM | EC50 (HIV-1RF): 30 ± 20 nM | IC50 (CYP3A4; [4]): 20100 nM | IC50 (CYP3A4; [5]): > 25000 nM | IC50 (CYP2D6; [6]): > 25000 nM | TC50 [1]: >1000 nM | CLint ± SEM ([2]; human liver microsomes): 71.0 ± 5.63 μL/min/mg protein | t1/2 ([2]; human liver microsomes): 19.5 min | EC50 (HIV-1 HT/92/599; [7]): 163 ± 30 nM | EC50 (HIV-1Ba-L; [8]): 0.13 nM | EC50 (HIV-1Ba-L; [9]): 4.03 nM | EC50 (HIV-1Ba-L; [10]): 11.7 nM | EC50 (HIV-1Ba-L; [11]): 0.25 nM
